Reference: ChEMBL document CHEMBL5038632, “Discovery and Characterization of Potent Dual P-Glycoprotein and CYP3A4 Inhibitors: Design, Synthesis, Cryo-EM Analysis, and Biological Evaluations” (J Med Chem, 2022)
pIC50: −log10 of the molar value.

Tests used:
Cytochrome P450 3A4 = Cytochrome P450 3A4 (Homo sapiens, UniProt P08684); assay: Inhibition of CYP3A4 in human liver microsomes using IPA as substrate preincubated for 10 mins followed by NADPH generating system addition and measured after 20 mins
MES-SA/Dx5 = assay: Cytotoxicity in human MES-SA/Dx5 cells assessed as reduction in cell viability at 1.28 uM incubated for 3 days by MTT assay relative to control; assay type: toxicity, cell-based; details: mes-sa/dx5, 72 h, time 3 day
[1] = Cmax in CD-1 mouse at 20 mg/kg, po by LC-MS/MS analysis; assay type: ADME, organism-based; parameters: route oral, dose 20 mg/kg; details: in vivo
[2] = Half life in CD-1 mouse at 20 mg/kg, po 30 mins prior to 10 mg/kg, po docetaxel administration measured after 8 hrs by LC-MS/MS analysis; assay type: ADME, organism-based; details: in vivo, time 8.5 hrs
MDR1 [3] = assay: Efflux ratio of apparent permeability across apical to basolateral to basolateral to apical membrane membrane in MDCKII-MDR1 at 3 uM; assay type: ADME, cell-based, Canis lupus familiaris; details: dog, MDCK-MDR1
MDR1 [4] = assay: Apparent permeability across apical to basolateral side in MDCKII-MDR1 cells at 3 uM by LC/MS/MS analysis; assay type: ADME, cell-based, Canis lupus familiaris; details: dog, MDCK-MDR1
MDR1 [5] = assay: Efflux ratio of apparent permeability across apical to basolateral to basolateral to apical membrane membrane in MDCKII-MDR1at 3 uM in presence of valspodar; assay type: ADME, cell-based, Canis lupus familiaris; details: dog, MDCK-MDR1, with valspodar (concentration not stated)
[6] = Efflux ratio of apparent permeability across apical to basolateral to basolateral to apical membrane membrane in MDCK1 at 3 uM; assay type: ADME, cell-based, Canis lupus familiaris; details: dog, mdck1, 3 µM
[7] = Tmax in CD-1 mouse at 20 mg/kg, po 30 mins prior to 10 mg/kg, po docetaxel administration measured after 8 hrs by LC-MS/MS analysis; assay type: ADME, organism-based; details: in vivo, time 8.5 hrs
[8] = Cmax in CD-1 mouse at 20 mg/kg, po 30 mins prior to 10 mg/kg, po docetaxel administration measured after 8 hrs by LC-MS/MS analysis; assay type: ADME, organism-based; parameters: route oral, time 8.5 hrs, dose 20 mg/kg; details: in vivo
[9] = Apparent permeability across apical to basolateral side in MDCK1 cells at 3 uM by LC/MS/MS analysis; assay type: ADME, cell-based, Canis lupus familiaris; details: dog, MDCK
[10] = Apparent permeability across basolateral side to apical side in MDCK1 cells at 3 uM by LC/MS/MS analysis; assay type: ADME, cell-based, Canis lupus familiaris; details: dog, MDCK
[11] = Efflux ratio of apparent permeability across apical to basolateral to basolateral to apical membrane membrane in MDCK1 at 3 uM in presence of valspodar; assay type: ADME, cell-based, Canis lupus familiaris; details: dog, MDCK, with valspodar (concentration not stated)
[12] = AUC (0 to t) in CD-1 mouse at 20 mg/kg, po 30 mins prior to 10 mg/kg, po docetaxel administration measured after 8 hrs by LC-MS/MS analysis; assay type: ADME, organism-based; parameters: route oral, dose 20 mg/kg, time 8.5 hrs; details: in vivo
MDR1 [13] = assay: Apparent permeability across basolateral side to apical side in MDCKII-MDR1 cells at 3 uM by LC/MS/MS analysis; assay type: ADME, cell-based, Canis lupus familiaris; details: dog, MDCK-MDR1
MDR1 [14] = assay: Efflux ratio of apparent permeability across apical to basolateral to basolateral to apical membrane membrane in MDCKII-MDR1at 1 uM in presence of valspodar; assay type: ADME, cell-based, Canis lupus familiaris; details: dog, MDCK-MDR1, with valspodar (concentration not stated)
[15] = Efflux ratio of apparent permeability across apical to basolateral to basolateral to apical membrane membrane in MDCK1 at 1 uM; assay type: ADME, cell-based, Canis lupus familiaris; details: dog, MDCK
[16] = Efflux ratio of apparent permeability across apical to basolateral to basolateral to apical membrane membrane in MDCK1 at 1 uM in presence of valspodar; assay type: ADME, cell-based, Canis lupus familiaris; details: dog, MDCK, with valspodar (concentration not stated)
MDR1 [17] = assay: Apparent permeability across basolateral side to apical side in MDCKII-MDR1 cells at 1 uM by LC/MS/MS analysis; assay type: ADME, cell-based, Canis lupus familiaris; details: dog, MDCK-MDR1
MDR1 [18] = assay: Efflux ratio of apparent permeability across apical to basolateral to basolateral to apical membrane in MDCKII-MDR1 at 1 uM; assay type: ADME, cell-based, Canis lupus familiaris; details: dog, MDCK-MDR1

Sequence of Cytochrome P450 3A4 (P08684 whole entry): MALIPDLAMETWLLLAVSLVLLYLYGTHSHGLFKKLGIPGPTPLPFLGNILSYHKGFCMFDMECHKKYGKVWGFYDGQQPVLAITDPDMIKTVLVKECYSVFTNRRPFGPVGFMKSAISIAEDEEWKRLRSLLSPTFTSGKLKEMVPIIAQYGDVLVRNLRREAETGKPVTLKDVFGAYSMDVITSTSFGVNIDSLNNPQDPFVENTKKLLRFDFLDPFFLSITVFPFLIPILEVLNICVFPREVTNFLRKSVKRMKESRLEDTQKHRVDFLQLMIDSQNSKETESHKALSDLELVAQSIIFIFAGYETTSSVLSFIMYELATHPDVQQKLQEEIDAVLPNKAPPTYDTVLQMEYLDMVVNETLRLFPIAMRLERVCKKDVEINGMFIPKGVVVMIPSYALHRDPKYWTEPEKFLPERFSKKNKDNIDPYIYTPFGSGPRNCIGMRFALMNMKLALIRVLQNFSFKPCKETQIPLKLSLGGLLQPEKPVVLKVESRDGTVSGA

| SMILES | pIC50 (Cytochrome P450 3A4) | Activity (MES-SA/Dx5) [%] | other results |
| --- | --- | --- | --- |
| COc1cc2c(cc1OC)CN(CCc1ccc(-n3nnc(-c4cc(OCCc5cccnc5)ccc4NC(=O)c4cc(=O)c5ccccc5o4)n3)cc1)CC2 | 6.14 | 1 |  |
| COc1cc(NC(=O)c2cc(=O)c3ccccc3o2)c(-c2nnn(-c3ccc(CCN4CCc5ccc(-n6ccnc6)cc5C4)cc3)n2)cc1OC | 6.40 | 1 |  |
| COc1cc(NC(=O)c2cc(=O)c3ccccc3o2)c(-c2nnn(-c3ccc(CCN4CCc5cnccc5C4)cc3)n2)cc1OCc1ccccc1 | 5.91 | 3 |  |
| COc1cc2c(cc1OC)CN(CCc1ccc(-n3nnc(-c4cc(Oc5cccnc5)ccc4NC(=O)c4cc(=O)c5ccccc5o4)n3)cc1)CC2 | 5.83 | 2 | Cmax [1]: 3.4 nM; half-life [2]: 6.02 h; efflux ratio at 3 µM (MDR1 [3]): 0.277; Papp A→B at 3 µM (MDR1 [4]): 0.0072 ×10⁻⁶ cm/s; efflux ratio at 3 µM (MDR1 [5]): 0.093; Ratio [6]: < 0.22; Tmax [7]: 0.5 h; Cmax [8]: 2.46 ng/mL; Papp A→B at 3 µM [9]: 0.0093 ×10⁻⁶ cm/s; Papp B→A at 3 µM [10]: < 0.002 ×10⁻⁶ cm/s; efflux ratio at 3 µM [11]: 0.085; AUC(0-t) at 8.5 h [12]: 11.7 ng·h/mL; Papp B→A at 3 µM (MDR1 [13]): 0.002 ×10⁻⁶ cm/s |
| COc1cc2c(cc1OC)CN(CCc1ccc(-n3nnc(-c4cc(OC)c(OC)cc4NC(=O)c4cc(=O)c5ccccc5o4)n3)cc1)CC2 | < 5.05 | 6 | efflux ratio at 1 µM (MDR1 [14]): 1.73; efflux ratio at 1 µM [15]: 1.83; efflux ratio at 1 µM [16]: 1.36; Papp B→A at 1 µM (MDR1 [17]): 0.0049 ×10⁻⁶ cm/s; efflux ratio at 1 µM (MDR1 [18]): 5.74 |
| COc1cc2c(cc1OC)CN(CCc1ccc(-n3nnc(-c4cc(OCc5cccnc5)ccc4NC(=O)c4cc(=O)c5ccccc5o4)n3)cc1)CC2 | < 5.05 | 3 |  |
| CC(=O)N1CCN(c2ccc(OCC3COC(Cn4ccnc4)(c4ccc(Cl)cc4Cl)O3)cc2)CC1 (configuration not stated) [KETOCONAZOLE] |  | 39 |  |
| COc1cc2c(cc1OC)CN(CCc1ccc(-n3nnc(-c4cc(OC)c(OC)cc4NC(=O)c4cc(=O)c5cc(Br)ccc5o4)n3)cc1)CC2 | < 5.05 | 30 |  |
| COc1cc2c(cc1OC)CN(CCc1ccc(-n3nnc(-c4cc(OCc5ccncc5)ccc4NC(=O)c4cc(=O)c5ccccc5o4)n3)cc1)CC2 | < 5.05 | 33 |  |
| COc1cc2c(cc1OC)CN(CCc1ccc(-n3nnc(-c4cc(OC)c(OC)cc4NC(=O)c4ccc(-n5ccnc5)cc4)n3)cc1)CC2 | 6.29 | 5 |  |
| COc1cc2c(cc1OC)CN(CCc1ccc(-n3nnc(-c4cc(OC)c(OC)cc4NC(=O)c4cc(=O)c5cc(-n6ccnc6)ccc5o4)n3)cc1)CC2 | 5.48 | 6 |  |
| COc1cc2c(cc1OC)CN(CCc1ccc(-n3nnc(-c4cc(OCc5ccccc5)c(OC)cc4NC(=O)c4cc(=O)c5ccccc5o4)n3)cc1)CC2 | < 5.05 | 30 |  |
| COc1cc(NC(=O)c2cc(=O)c3ccccc3o2)c(-c2nnn(-c3ccc(CCN4CCc5cc(-n6ccnc6)ccc5C4)cc3)n2)cc1OC | 6.52 | 10 |  |
| COc1cc2c(cc1OC)CN(CCc1ccc(-n3nnc(-c4cc(OC)c(OC)cc4NC(=O)c4cc(=O)c5cc(-c6ccncc6)ccc5o4)n3)cc1)CC2 | < 5.05 | 1 |  |
| COc1cc(NC(=O)c2cnc3ccccc3c2)c(-c2nnn(-c3ccc(CCN4CCc5cnccc5C4)cc3)n2)cc1OCc1ccccc1 | 6.07 | 3 |  |
| COc1cc(NC(=O)c2cc(=O)c3ccccc3o2)c(-c2nnn(-c3ccc(CCN4CCn5cncc5C4)cc3)n2)cc1OCc1ccccc1 | 5.69 | 13 | Papp A→B at 3 µM (MDR1 [4]): < 0.02 ×10⁻⁶ cm/s; Papp B→A at 3 µM (MDR1 [13]): < 0.02 ×10⁻⁶ cm/s |
| COc1cc2c(cc1OC)CN(CCc1ccc(-n3nnc(-c4cc(Oc5ccncc5)ccc4NC(=O)c4cc(=O)c5ccccc5o4)n3)cc1)CC2 | < 5.05 | 9 |  |
| COc1cc(NC(=O)c2cc(=O)c3ccccc3o2)c(-c2nnn(-c3ccc(CCN4CCc5ccncc5C4)cc3)n2)cc1OC | 5.98 | 1 |  |
| COc1cc(NC(=O)c2cc(=O)c3ccccc3o2)c(-c2nnn(-c3ccc(CCN4CCc5cnccc5C4)cc3)n2)cc1OC | 5.97 | 1 | Papp A→B at 3 µM (MDR1 [4]): < 0.02 ×10⁻⁶ cm/s; Papp B→A at 3 µM (MDR1 [13]): < 0.02 ×10⁻⁶ cm/s |
| COc1cc2c(cc1OC)CN(CCc1ccc(-n3nnc(-c4cc(OC)c(OC)cc4NC(=O)c4ccc(-c5cccnc5)cc4)n3)cc1)CC2 | < 5.05 | 0 |  |
| COc1cc2c(cc1OC)CN(CCc1ccc(-n3nnc(-c4cc(OCc5cccnc5)c(OC)cc4NC(=O)c4cc(=O)c5ccccc5o4)n3)cc1)CC2 | < 5.05 | 36 |  |
| COc1cc(NC(=O)c2cc(=O)c3ccccc3o2)c(-c2nnn(-c3ccc(CCN4CCn5cncc5C4)cc3)n2)cc1OC | 6.83 | 6 |  |
| COc1cc2c(cc1OC)CN(CCc1ccc(-n3nnc(-c4cc(OC)c(OC)cc4NC(=O)c4ccc(-c5ccncc5)cc4)n3)cc1)CC2 | < 5.05 | 11 |  |
